Values quoted from earlier work, collected in patent publication US20150272847A1, “Skin Engaging Shaving Aid Comprising A Thermally Resilient Sensate And A TRPA1 Receptor Inhibitor” (The Gillette Company, priority 2014, published 2015).

Details: compared to menthol at 2 ppm

SMILES: CC(C)[C@@H]1CC[C@@H](C)C[C@H]1C(=O)Nc1ccc(CC#N)cc1 [N-[4-(cyanomethyl)phenyl]-(1R,2S,5R)-2-isopropyl-5-methylcyclohexanecarboxamide]
- Cooling as compared to menthol: about 10 ×
